According to PubChem BioAssay AID330 (DTP/NCI, 2004):
Values joined by “and” are separate entries in the source; they are usually repeats but may differ in a detail not shown here. Equal entries are not always repeated. Inconclusive results and toxic doses are left out. Rule for the calls: active = survival T/C of 150% or more; inactive = T/C below 125% in these data.

Test system: P388 leukemia ip, CD2F1 mice, survival T/C
Assay: NCI In Vivo Anticancer Drug Screen. Data for tumor model P388 Leukemia (intraperitoneal) in CD2F1 (CDF1) mice
Conditions: endpoint: median survival time, higher = longer survival
Summary of the method: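 Mice carrying the transplanted tumor received test compound or vehicle. Survival was recorded in each group, and the value is the treated-group measurement divided by that of the vehicle-treated control group.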

[1] = dose: 60.0 mg/kg/injection, schedule: Q01DX005 (ip), vehicle: saline with Tween-80
[2] = dose: 12.5 mg/kg/injection, schedule: Q01DX009 (ip), vehicle: saline with Tween-80
[3] = dose: 25.0 mg/kg/injection, schedule: Q01DX009 (ip), vehicle: saline with Tween-80
[4] = dose: 50.0 mg/kg/injection, schedule: Q01DX009 (ip), vehicle: saline with Tween-80
[5] = dose: 100.0 mg/kg/injection, schedule: Q01DX009 (ip), vehicle: saline with Tween-80
[6] = dose: 200.0 mg/kg/injection, schedule: Q01DX009 (ip), vehicle: saline with Tween-80
[7] = dose: 50.0 mg/kg/injection, schedule: Q01DX005 (ip), vehicle: Klucel (hydroxypropylcellulose) (HPC)
[8] = dose: 100.0 mg/kg/injection, schedule: Q01DX005 (ip), vehicle: Klucel (hydroxypropylcellulose) (HPC)
[9] = dose: 200.0 mg/kg/injection, schedule: Q01DX005 (ip), vehicle: Klucel (hydroxypropylcellulose) (HPC)
[10] = dose: 60.0 mg/kg/injection, schedule: Q01DX005 (ip), vehicle: saline
[11] = dose: 120.0 mg/kg/injection, schedule: Q01DX005 (ip), vehicle: saline
[12] = dose: 240.0 mg/kg/injection, schedule: Q01DX005 (ip), vehicle: saline

Measured: T/C

O=S(=O)(c1ccc(Cl)cc1)N(CCCCCN(S(=O)(=O)c1ccc(Cl)cc1)S(=O)(=O)c1ccc(Cl)cc1)S(=O)(=O)c1ccc(Cl)cc1
inactive: dose: 30.0 mg/kg/injection, schedule: Q01DX005 (ip), vehicle: Klucel (hydroxypropylcellulose) (HPC) 94 % of control | dose: 60.0 mg/kg/injection, schedule: Q01DX005 (ip), vehicle: Klucel (hydroxypropylcellulose) (HPC) 105 % of control | dose: 120.0 mg/kg/injection, schedule: Q01DX005 (ip), vehicle: Klucel (hydroxypropylcellulose) (HPC) 96 % of control | dose: 240.0 mg/kg/injection, schedule: Q01DX005 (ip), vehicle: Klucel (hydroxypropylcellulose) (HPC) 93 % of control

O=S(=O)(O)O.[Ga]
inactive: dose: 33.0 mg/kg/injection, schedule: Q04DX003 (ip), vehicle: saline sonified 95 % of control | dose: 50.0 mg/kg/injection, schedule: Q01DX009 (ip), vehicle: saline sonified 100 % of control | dose: 50.0 mg/kg/injection, schedule: Q04DX003 (ip), vehicle: saline sonified 110 % of control

O=S1(=O)C2CCC(Cl)C1CCC2Cl (stereo not drawn)
inactive: dose: 75.0 mg/kg/injection, schedule: Q04DX003 (ip), vehicle: Klucel (hydroxypropylcellulose) (HPC) 98 % of control | dose: 150.0 mg/kg/injection, schedule: Q04DX003 (ip), vehicle: Klucel (hydroxypropylcellulose) (HPC) 100 % of control

Cc1onc(-c2c(F)cccc2Cl)c1-c1ncc(-c2ccc(Cl)cc2)o1
inactive: [1] 98 % of control | dose: 120.0 mg/kg/injection, schedule: Q01DX005 (ip), vehicle: saline with Tween-80 94 % of control | dose: 240.0 mg/kg/injection, schedule: Q01DX005 (ip), vehicle: saline with Tween-80 99 % of control

COc1ccc(/C=C/c2ccnc3ccccc23)cc1
inactive: dose: 6.25 mg/kg/injection, schedule: Q01DX009 (ip), vehicle: saline with Tween-80 100 % of control | [2] 104 % of control | [3] 108 % of control

COC(=O)/C(C#N)=C/N(C)c1ccc([N+](=O)[O-])cc1
inactive: [4] 100 % of control | [5] 104 % of control | [6] 92 % of control

CC(=O)OCC12C(OC(C)=O)C(=O)C3C(OC(C)=O)C14OC3(C)COC(=O)c1cccnc1C(C)C(C)C(=O)OC(C(OC(C)=O)C2OC(C)=O)C4(C)O (stereo not drawn)
inactive: dose: 3.0 mg/kg/injection, schedule: Q01DX009 (ip), vehicle: Klucel (hydroxypropylcellulose) (HPC) 104 % of control | dose: 6.0 mg/kg/injection, schedule: Q01DX009 (ip), vehicle: Klucel (hydroxypropylcellulose) (HPC) 93 % of control | dose: 12.0 mg/kg/injection, schedule: Q01DX009 (ip), vehicle: Klucel (hydroxypropylcellulose) (HPC) 96 % of control | dose: 24.0 mg/kg/injection, schedule: Q01DX009 (ip), vehicle: Klucel (hydroxypropylcellulose) (HPC) 96 % of control

CN1CCN(CC(=O)c2c(-c3ccccc3)[nH]c3ccccc23)CC1
inactive: dose: 100.0 mg/kg/injection, schedule: Q04DX003 (ip), vehicle: saline 101 % of control | dose: 200.0 mg/kg/injection, schedule: Q04DX003 (ip), vehicle: saline 105 % of control | dose: 400.0 mg/kg/injection, schedule: Q04DX003 (ip), vehicle: saline 97 % of control

O=C1Nc2cnc(Cl)nc2Nc2ccccc21
inactive: [7] 99 % of control | [8] 91 % of control | [9] 101 % of control

CN1C(=O)C(O)(CC(=O)c2ccccc2)c2ccccc21 (stereo not drawn)
inactive: [4] 93 % of control | [5] 93 % of control | [6] 90 % of control

COc1ccc2c(N=[N+]=[N-])cc(C)nc2c1
inactive: dose: 30.0 mg/kg/injection, schedule: Q01DX005 (ip), vehicle: saline with Tween-80 97 % of control | [1] 100 % of control and 91 % of control

O=C(O)CC1(c2ccccc2)CCCCC1
inactive: [4] 103 % of control | [5] 100 % of control | [6] 102 % of control

CN1CCc2cc(O)c(O)cc2C1Cc1ccc(O)c(O)c1 (stereo not drawn)
inactive: [4] 100 % of control | [5] 96 % of control

Nc1cc(Cl)c(Cl)cc1Cl
inactive: [2] 100 % of control | [3] 95 % of control | [4] 90 % of control

COC(=O)N1CC2C=CC1C(Cl)(C#N)C2 (stereo not drawn)
inactive: dose: 50.0 mg/kg/injection, schedule: Q01DX009 (ip), vehicle: Klucel (hydroxypropylcellulose) (HPC) 101 % of control | dose: 100.0 mg/kg/injection, schedule: Q01DX009 (ip), vehicle: Klucel (hydroxypropylcellulose) (HPC) 90 % of control | dose: 200.0 mg/kg/injection, schedule: Q01DX009 (ip), vehicle: Klucel (hydroxypropylcellulose) (HPC) 106 % of control

CCCCCCCCCCN(CCCCCCCCCC)C1CC(OC2CC(O)(C(C)O)Cc3c(O)c4c(c(O)c32)C(=O)c2c(OC)cccc2C4=O)OC(C)C1O (stereo not drawn)
inactive: dose: 4.7 mg/kg/injection, schedule: Q04DX003 (ip), vehicle: water 99 % of control | dose: 9.4 mg/kg/injection, schedule: Q04DX003 (ip), vehicle: water 99 % of control | dose: 18.8 mg/kg/injection, schedule: Q04DX003 (ip), vehicle: water 101 % of control | dose: 37.5 mg/kg/injection, schedule: Q04DX003 (ip), vehicle: water 110 % of control | dose: 75.0 mg/kg/injection, schedule: Q04DX003 (ip), vehicle: water 101 % of control

CC1(C)OC(=O)C(CC(=O)O)O1 (stereo not drawn)
inactive: [10] 105 % of control | [11] 100 % of control | [12] 100 % of control

COC(=O)C(CS)NC(=O)CCNC(=O)OCc1ccccc1 (stereo not drawn)
inactive: dose: 25.0 mg/kg/injection, schedule: Q04DX003 (ip), vehicle: sodium bicarbonate 91 % of control | dose: 50.0 mg/kg/injection, schedule: Q04DX003 (ip), vehicle: sodium bicarbonate 87 % of control | dose: 100.0 mg/kg/injection, schedule: Q04DX003 (ip), vehicle: sodium bicarbonate 96 % of control | dose: 200.0 mg/kg/injection, schedule: Q04DX003 (ip), vehicle: sodium bicarbonate 87 % of control | dose: 400.0 mg/kg/injection, schedule: Q04DX003 (ip), vehicle: sodium bicarbonate 91 % of control

CN(CCO)C1CC(C)(C)N(O)C(C)(C)C1
inactive: [10] 96 % of control | [11] 100 % of control | [12] 100 % of control

CCOC(=O)C1=CNc2ccccc2N=C1N
inactive: dose: 6.25 mg/kg/injection, schedule: Q01DX005 (ip), vehicle: saline with Tween-80 112 % of control | dose: 12.5 mg/kg/injection, schedule: Q01DX005 (ip), vehicle: saline with Tween-80 115 % of control | dose: 25.0 mg/kg/injection, schedule: Q01DX005 (ip), vehicle: saline with Tween-80 113 % of control

Cc1noc2c1NC(=O)OCC2
inactive: [7] 101 % of control | [8] 95 % of control | [9] 97 % of control

CNC(=O)Nc1c(C)cccc1C
inactive: dose: 25.0 mg/kg/injection, schedule: Q04DX003 (ip), vehicle: saline with Tween-80 104 % of control | dose: 50.0 mg/kg/injection, schedule: Q04DX003 (ip), vehicle: saline with Tween-80 100 % of control | dose: 100.0 mg/kg/injection, schedule: Q04DX003 (ip), vehicle: saline with Tween-80 105 % of control | dose: 200.0 mg/kg/injection, schedule: Q04DX003 (ip), vehicle: saline with Tween-80 107 % of control

CCc1[nH]c2ccccc2c1C(=O)c1cccnc1
inactive: dose: 50.0 mg/kg/injection, schedule: Q04DX003 (ip), vehicle: Klucel (hydroxypropylcellulose) (HPC) 101 % of control | dose: 100.0 mg/kg/injection, schedule: Q04DX003 (ip), vehicle: Klucel (hydroxypropylcellulose) (HPC) 97 % of control | dose: 200.0 mg/kg/injection, schedule: Q04DX003 (ip), vehicle: Klucel (hydroxypropylcellulose) (HPC) 100 % of control
